In paper PMC6367362, “MD001, a Novel Peroxisome Proliferator-activated Receptor α/γ Agonist, Improves Glucose and Lipid Metabolism” (Scientific Reports, 2019):

Assays:
[1] = tested on: differentiated 3T3-L1 adipocytes; assay: In vitro glucose consumption assay, 3T3-L1 adipocytes; type: cell-based, mouse; conditions: 10, 50 μM, 24 h
Method: Figure 3 MD001 promotes glucose consumption by induction of GLUT expression. HepG2 (A), differentiated 3T3-L1 adipocytes (B), and differentiated C2C12 myotubes (C) were treated with vehicle, MD001 (10, 50 μM), or rosiglitazone (rosi, 10 μM) for 24 h; glucose consumption was examined as described in the Methods section. Cells were harvested for total RNA isolation. Relative expression levels of GLUT2 (D) and GLUT4 (E,F) were quantitated using qRT-PCR. *, **, and ^† vs. vehicle. Data represent the mean ± SD of three independent experiments. *P < 0.05, **P < 0.01, and ^†P < 0.01.
The glucose consumption assay was performed as previously described. Briefly, cells were treated with MD001 or rosiglitazone […]. The conditioned medium from cultured cells was harvested and assayed for glucose content using a Glucose Colorimetric Assay Kit II (BioVision Inc., Milpitas, CA, USA).

human HA-PPARγ = biological target: T1, human HA-PPARγ (Homo sapiens, UniProt P37231); assay: PPRE luciferase activity assay in HEK293 cells transfected with HA-PPARγ; type: cell-based; parameters: transcriptional activity of PPARγ: dose or concentration left out as unconfirmed; conditions: HEK293, PPRE-pk-Luc
T1 construct: expressed in transfected cells; host or cells: HEK293
T1 sequence (P37231 1-505): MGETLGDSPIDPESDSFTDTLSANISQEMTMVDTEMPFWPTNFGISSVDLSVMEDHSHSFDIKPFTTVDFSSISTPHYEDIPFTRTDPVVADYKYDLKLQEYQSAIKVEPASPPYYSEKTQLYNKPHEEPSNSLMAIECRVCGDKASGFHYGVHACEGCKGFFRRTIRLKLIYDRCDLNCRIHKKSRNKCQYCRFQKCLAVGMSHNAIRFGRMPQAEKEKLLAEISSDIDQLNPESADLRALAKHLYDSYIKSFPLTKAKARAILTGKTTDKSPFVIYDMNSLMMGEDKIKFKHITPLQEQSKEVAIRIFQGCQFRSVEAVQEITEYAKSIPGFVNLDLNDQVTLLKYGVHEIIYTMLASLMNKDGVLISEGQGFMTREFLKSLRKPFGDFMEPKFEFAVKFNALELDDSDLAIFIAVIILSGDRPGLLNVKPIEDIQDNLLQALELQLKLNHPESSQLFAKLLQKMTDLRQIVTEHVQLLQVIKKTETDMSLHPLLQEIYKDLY
Method: Figure 2 MD001 induces the expression of target genes through PPARα and PPARγ activation. HEK293 cells were transiently co-transfected with human HA-PPARα (A) and HA-PPARγ (B) expression vectors along with the reporter plasmid (PPRE-pk-Luc) or control reporter plasmid (pk-Luc) with Renilla vector for 24 h. Cells were treated with MD001 (10 μM), rosiglitazone (rosi) (10 μM) or WY14643 (WY) (10 μM) for 24 h. Luciferase activity was normalised to Renilla luciferase activity as described in the Methods section. **, vs. vehicle. (C) HepG2 cells were treated with MD001 (10 μM) for 24 h, and total RNA was isolated and synthesised into cDNA. Relative expression was quantitated using qRT-PCR. **, vs. vehicle. (D,E) HepG2 cells were transfected with control siRNA, PPARα siRNA (D), or PPARγ siRNA (E) for 48 h and treated with vehicle, WY14643 (10 μM), rosiglitazone (10 μM) or MD001 (10 μM) for 24 h. Subsequently, cells were harvested for total RNA isolation. Relative expression of target genes was quantitated using qRT-PCR. ^#, vs. control siRNA; ^‡, vs. control siRNA/vehicle; ^§, vs. control siRNA/WY; * and **, vs. control siRNA/MD001. Data represent the mean ± SD of three independent experiments. *P < 0.05, **P < 0.01, ^#P < 0.01, ^‡P < 0.01, and ^§P < 0.01.
For transient transfection, cells were transfected with plasmid DNA constructs by polyethylenimine (PEI, Polysciences, Inc., Warrington, PA, USA) according to the manufacturer’s instructions. Transcription activity assays of PPARα and PPARγ in HEK293 cells were performed by co-transfection of HA-PPARα, HA-PPARγ, and peroxisome proliferator-response element (PPRE) reporter plasmid (PPRE-pk-Luc) or control reporter plasmid (pk-Luc) with Renilla vector for 24 h. […] Luciferase activity was measured with the Dual-Luciferase Reporter Assay System (Promega, Madison, WI, USA) and quantified using GloMax (Promega, USA) according to the manufacturer’s protocol. […]
Luciferase activity was measured as described in the Methods section. […]

Cc1c(O)cc(O)c2c(-c3ccccc3)c(C(=O)/C=C/c3ccccc3)c(=O)oc12 [MD001]
glucose consumption [1]: significantly increased glucose consumption in a dose-dependent manner | transcription via PPARγ activation (luciferase activity) (human HA-PPARγ; 10 μM, 24 h, vs. vehicle): significantly increased | transcriptional activity of PPARγ (human HA-PPARγ; 24 h (Supplementary Fig. S2)): promoted simultaneous transcriptional activity
